The MRT is the average time that molecules of a dose stay in the body. One may read the Tmax as the time at which the peak concentration occurs. What is called AUC(0-inf) is total exposure, with the tail of the curve extrapolated. Low values mean less exposure, high ones more exposure. Broadly, the Cmax is the peak of the concentration-time curve.

Results on 1 compound are retold here after article PMC3948684, “Approaches to Improve the Oral Bioavailability and Effects of Novel Anticancer Drugs Berberine and Betulinic Acid” (PLoS ONE, 2014).

Where two headings read alike, the source gives them in different places.

Series [1] can be described thus: In vitro drug release of BBR (USP type II paddle). The series is classed as physicochemical. As to conditions: after 5 h; PBS pH 5.8 with 1% volpo, 37°C. The procedure:
In vitro drug release study was conducted in PBS (pH 5.8) containing 1% volpo. Briefly, 50 mg of free drug or equivalent amount of SD form of BBR and BA were dispersed in 500 ml of release medium and the drug release profile was studied at pH 5.8. Release studies were performed according to the USP type II paddle method, at 37±0.5°C while stirring constantly at 50 rpm. Samples were withdrawn at different time points, centrifuged and drug content in the samples was analyzed by spectrometric method of analysis. The withdrawn samples were replaced by equal volumes of fresh medium maintained at the same temperature. Except replacing the 1% Volpo with 2.5% SLS, similar conditions were maintained for the in vitro drug release studies of BA in free drug and SD forms. The released BA concentrations were measured by established HPLC method.

Series [2] is described as follows: Oral pharmacokinetic study. The series is classed as in vivo, Sprague Dawley rats. The procedure: Rats were fasted overnight before the start of the experiments and randomly divided into two experimental groups. […] Pharmacokinetic parameters were analyzed using non-compartmental techniques with WinNonlin® 5.0 software (Pharsight Corporation, Mountain View, CA, USA). SHAM analysis (i.e., Slope, Height, Area, and Moment) utilized plasma concentration-time data to estimate the area under the curve (AUC), apparent terminal elimination rate constant (λz), terminal elimination half-life (t1/2) and the area under the first moment of the plasma concentration–time curve (AUMC). The AUC was calculated for each rat using the piecewise log trapezoidal areas and extrapolated to infinity by dividing λz into the last measured plasma concentration (i.e. Clast/λz). From the values of AUC0_0-∞ and AUMC0-∞, the clearance (CL), mean residence time (MRT) and volume of distribution at tissue equilibrium (Vss) were calculated based on noncompartmental monoexponential assumptions as: CL = Dose/AUC, MRT≅AUMC/AUC and Vss = CL×MRT. The noncompartmental parameters were calculated for each rat before averaging dose groups. The pharmacokinetic parameters such as AUC, Cmax, t1/2, tmax, MRT, etc were compared between the free drug and SD formulations.

Series [3] concerns A549 orthotopic lung tumors. Description: A549 orthotopic lung cancer model. It counts as in vivo, athymic Nu/nu mice. As to conditions: 100 mg/kg orally daily for 3 weeks. The procedure: A549 cells were grown in F12K Medium containing 10% FBS and standard antibiotic mix at 5% CO2 and 37°C. For orthotopic lung tumor model, mice were anesthetized with Isoflurane and a 5 mm skin incision was made to the left chest, 5 mm below the scapula. Hamilton syringes (1 ml) with 28-gauge hypodermic needles were used to inject the cell inoculums through the sixth intercostal space into the left lung. The needle was quickly advanced to a depth of 3 mm and quickly removed after the injection of the A549 cells (2 million/mouse) suspended in 100 µL PBS (pH 7.4) into the lung parenchyma. For metastatic lung tumor models H1650 cells (2 million in 100 µL PBS) were intravenously administered to mice via tail vein. […] Only cell suspensions of >95% viability as determined by tryphan blue exclusion were used. Wounds from the incisions were closed with surgical skin clips. […] Drug treatment was started 2 weeks after the tumor cell implantation. BBR free drug or SD formulation was given orally at the dose of 100 mg/kg daily for 3 weeks. […] Body weights were monitored throughout the study. Animal survival rates were recorded during the study. The lung weights and tumor volumes were used for assessment of therapeutic activity of the treatments. After sacrificing the animals lung weights and tumor nodules were recorded in metastatic tumor models.

The next series has as its system cleaved caspase 3. The series can be described thus: IHC analysis of orthotopic lung tumor sections. The note with it: A549 tumors. It counts as in vivo, athymic Nu/nu mice. The source says: Formalin fixed tumors were processed for automatic histopathological procedures. The detailed procedure was provided in Data S1 [30].
C) IHC for cleaved caspase 3 and CD31: Formalin fixed tumors were processed for automatic histopathological procedures. The detailed procedure was provided in supplmmentary data (Supple). Tissue sections were dehydrated by immersing in increasing concentrations of alcohol and embedded in paraffin. Paraffin embedded specimens were cut into thin sections (4-5 µm). Tissue sections (4–5 μm thick) were mounted on poly-L-lysine–coated slides and sections were deparaffinized with xylene and rehydration through graded concentrations of alcohol, then incubated with 3% […] for 20 min to block endogenous peroxidase activity. Antigen retrieval for cleaved caspase 3 and CD31 staining was carried out for 10 min in 0.01 M sodium citrate buffer (pH 6), heated at 95°C in a steam bath followed by cooling for 30 min. Endogenous peroxidase was blocked by 3% hydrogen peroxide in PBS for 10 min. The slides were washed with PBS and incubated for 1h at room temperature with a protein blocking solution. […] Numbers of positive cells per filed was quantified by counting 10 different fields from each section. Based on the CD31 positive cells, microvessel density (MVD) was calculated (30).

For the next series, the system named is VEGF. Description: Quantification of VEGF by ELISA. The series is classed as in vivo, athymic Nu/nu mice. The procedure: VEGF levels were estimated in plasma, tumor tissue homogenates by ELISA method. Tumors were homogenized in RIPA lysis buffer (20 mM Tris-HCl pH 7.5, 150 mM NaCl, 1% Triton X-100) containing proteinase inhibitors (Complete Proteinase Inhibitor Cocktail Tablets, Roche, Indianapolis. IN). Tissue debris was pelleted and the resulting supernatant was used in subsequent analysis. Total protein concentration was determined with a BCA protein assay (Pierce, Rockford, IL). VEGF concentrations were determined according to the manufacturer's instructions. A minimum of 3 tumors per group were analyzed in duplicate.
A general note: In an ELISA, binding on a coated surface is turned into a signal by an enzyme label.

On the set-up of series [4]: method as in PMID 17531424. As to conditions: single oral dose of 400 mg ref 20; cited from earlier work.
Details of series [5]: method as in PMID 19283771. The note with it: oral administration of 100 mg/kg in rats ref 24; cited from earlier work.
On the set-up of series [6]: method as in PMID 16956957, PMID 20634337. The note with it: oral ref 21, 22; cited from earlier work.
The mark [7] stands for this setting: Sprague Dawley, rat, plasma, po, 100 mg/kg orally.

Regarding `COc1ccc2cc3[n+](cc2c1OC)CCc1cc2c(cc1-3)OCO2.[Cl-]` [BBR free drug, 5,6-dihydro-9,10-dimethoxy-benzo[g]-1,3-benzodioxolo[5,6-a]quinolizinium, chloride], in series [1], the “percent of BBR released” value is given as “Approximately 100%”. In series [2] (100 mg/kg orally), the CL is 2.034 ± 0.2813 mL/min/kg. Moreover, in series [2] (BBR, 100 mg/kg orally), the “AUMC (0-∞)” value turned out to be 5619.03±651.24 ng.h^2/ml and the Vss amounted to 1.04839 ± 0.10635 L/kg. The half-life in series [2] (Sprague Dawley, rat, plasma, po, 100 mg/kg, read-out: t½ (converted)) is 5.95 ± 0.47 h. For the same compound, in series [2] (setting [7]), the MRT was determined as 6.85 ± 1.68 h and the Tmax is 1.41 ± 0.67 h. For the same compound, in series [2] (Sprague Dawley, rat, plasma, po, BBR, 100 mg/kg orally), the area under the curve AUC(0-inf) stood at 819 ± 82 ng·h/mL. The compound further had a Cmax in series [2] (Sprague Dawley, rat, po, BBR, 100 mg/kg orally, plasma) of 147 ± 21.8 ng/mL. Moreover, in series [3], the “decrease in tumor volumes compared to untreated control” value is 1.31 fold, the lung tumor weights came out at 385.77 ± 63.42 mg and the “reduced tumor weights compared to control tumors” value came out at 1.40 fold. The “number of cleaved caspase 3 positive apoptotic cells, higher compared to control” value in the series on cleaved caspase 3 was determined as 4.20 fold. Moreover, the “VEGF levels in tumor lysates” value in the series on VEGF (untreated control 284.71±42.84) is recorded as 137.59±20.84 pg/mg protein. The “VEGF levels in serum” value in the series on VEGF (untreated control 597.90±54.03) was 315.41 ± 44.06 pg/mL. The “Cmax in human plasma” value in series [4] is 0.4 ng/mL. Besides, in series [5], the Cmax is 4 ng/mL. In addition, in series [6], the bioavailability result was “less than 1%”.
